Measurements: the supplement of paper PMC10627819

Columns and labels:
B. subtilis 168 [1] = assay: fitness (endpoint OD595 vs no drug) (fraction); higher = more growth
Summary of the method: (§1)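 Bacterial fitness was scored as optical density at the stationary-phase transition relative to the robust mean of no-drug control wells. Scores are capped at 1. The growth data were OD595 readings every 30 min for 14 h at 37 °C, background-subtracted against the first reading, from 384-well plates inoculated at OD595 0.01 in TSB, LB Lennox or CY.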

S. aureus DSM 20231 [2] = assay: as above
Summary of the method: as §1

S. pneumoniae D39V [3] = assay: as above
Summary of the method: as §1

S. aureus Newman [4] = assay: as above
Summary of the method: as §1

B. subtilis 168 [5] = assay: Bliss interaction score (quartile over a dose matrix) (fitness difference); higher = more antagonism (negative = synergy)
Summary of the method: (§2)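 Each plate was normalised to the robust mean of its own no-drug wells, using OD595 at entry into stationary phase, with values capped at 1. This normalised growth is the fitness value. The Bliss score is the difference between observed and product-expected fitness, with single-drug fitness inferred from the combination data and quartiles taken over technical, biological and donor/recipient replicates.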

S. aureus DSM 20231 [6] = assay: as above
Summary of the method: as §2

S. pneumoniae D39V [7] = assay: as above
Summary of the method: as §2

S. aureus Newman [8] = assay: as above
Summary of the method: as §2
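Wherever Bliss interaction score (quartile over a dose matrix) is given: first quartile when negative (synergy) and third quartile when positive (antagonism).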

C[C@@H]1O[C@@H]1P(=O)(O)O [Fosfomycin] + CN1C2=CC=CC=C2N=C3C1=CC=CC3=O [Pyocyanin]
fitness
Settings | partner 0.325 µg/mL | partner 0.65 µg/mL | partner 1.25 µg/mL | partner 1.3 µg/mL | partner 2.5 µg/mL | partner 5 µg/mL
B. subtilis 168 [1], first compound 1.562 µg/mL | – | – | 0.671 | – | 0.632 | 0.536
B. subtilis 168 [1], first compound 3.124 µg/mL | – | – | 0.59 | – | 0.588 | 0.471
B. subtilis 168 [1], first compound 6.248 µg/mL | – | – | 0.465 | – | 0.412 | 0.376
S. aureus DSM 20231 [2], first compound 0.781 µg/mL | – | – | 0.673 | – | 0.707 | 0.541
S. aureus DSM 20231 [2], first compound 1.562 µg/mL | – | – | 0.653 | – | 0.629 | 0.472
S. aureus DSM 20231 [2], first compound 3.124 µg/mL | – | – | 0.508 | – | 0.509 | 0.39
S. aureus Newman [4], first compound 0.781 µg/mL | – | – | 0.547 | – | 0.548 | 0.424
S. aureus Newman [4], first compound 1.562 µg/mL | – | – | 0.439 | – | 0.465 | 0.38
S. aureus Newman [4], first compound 3.124 µg/mL | – | – | 0.0851 | – | 0.142 | 0.24
S. pneumoniae D39V [3], first compound 1.25 µg/mL | 0.992 | ≥ 1 | – | 0.774 | – | –
S. pneumoniae D39V [3], first compound 2.5 µg/mL | 0.971 | 0.923 | – | 0.791 | – | –
S. pneumoniae D39V [3], first compound 5 µg/mL | 0.837 | 0.899 | – | 0.745 | – | –

Settings | Bliss interaction score
B. subtilis 168 [5] | 0.072
S. aureus DSM 20231 [6] | 0.0453
S. aureus Newman [8] | 0.105
S. pneumoniae D39V [7] | 0.0461

C[C@@H]1O[C@@H]1P(=O)(O)O [Fosfomycin] + CN(N=O)C(=O)N[C@@H](C=O)[C@@H](O)[C@H](O)[C@H](O)CO [Streptozotocin]
fitness
Settings | partner 0.15 µg/mL | partner 0.3 µg/mL | partner 0.6 µg/mL | partner 1.2 µg/mL | partner 2.4 µg/mL | partner 4.8 µg/mL
B. subtilis 168 [1], first compound 1.562 µg/mL | 0.682 | 0.688 | 0.69 | – | – | –
B. subtilis 168 [1], first compound 3.124 µg/mL | 0.609 | 0.588 | 0.579 | – | – | –
B. subtilis 168 [1], first compound 6.248 µg/mL | 0.432 | 0.42 | 0.435 | – | – | –
S. aureus DSM 20231 [2], first compound 0.781 µg/mL | 0.717 | 0.627 | 0.549 | – | – | –
S. aureus DSM 20231 [2], first compound 1.562 µg/mL | 0.59 | 0.533 | 0.509 | – | – | –
S. aureus DSM 20231 [2], first compound 3.124 µg/mL | 0.476 | 0.441 | 0.292 | – | – | –
S. aureus Newman [4], first compound 0.781 µg/mL | 0.526 | 0.501 | 0.462 | – | – | –
S. aureus Newman [4], first compound 1.562 µg/mL | 0.491 | 0.455 | 0.342 | – | – | –
S. aureus Newman [4], first compound 3.124 µg/mL | 0.129 | 0.146 | 0.0801 | – | – | –
S. pneumoniae D39V [3], first compound 1.25 µg/mL | – | – | – | 0.898 | 0.934 | 0.952
S. pneumoniae D39V [3], first compound 2.5 µg/mL | – | – | – | 0.899 | 0.923 | 0.952
S. pneumoniae D39V [3], first compound 5 µg/mL | – | – | – | 0.732 | 0.703 | 0.747

Settings | Bliss interaction score
B. subtilis 168 [5] | -0.108
S. aureus DSM 20231 [6] | -0.0585
S. aureus Newman [8] | -0.0994
S. pneumoniae D39V [7] | -0.0567

C[C@@H]1O[C@@H]1P(=O)(O)O [Fosfomycin] + CN[C@@H]1[C@H](O)[C@H](NC)[C@H]2O[C@@]3(O)C(=O)C[C@@H](C)O[C@H]3O[C@@H]2[C@H]1O [Spectinomycin]
fitness
Settings | partner 2 µg/mL | partner 4 µg/mL | partner 8 µg/mL | partner 16 µg/mL
B. subtilis 168 [1], first compound 1.562 µg/mL | 0.657 | 0.662 | 0.601 | –
B. subtilis 168 [1], first compound 3.124 µg/mL | 0.554 | 0.526 | 0.426 | –
B. subtilis 168 [1], first compound 6.248 µg/mL | 0.431 | 0.4 | 0.212 | –
S. aureus DSM 20231 [2], first compound 0.781 µg/mL | – | 0.69 | 0.72 | 0.683
S. aureus DSM 20231 [2], first compound 1.562 µg/mL | – | 0.588 | 0.568 | 0.595
S. aureus DSM 20231 [2], first compound 3.124 µg/mL | – | 0.511 | 0.495 | 0.416
S. aureus Newman [4], first compound 0.781 µg/mL | – | 0.574 | 0.58 | 0.497
S. aureus Newman [4], first compound 1.562 µg/mL | – | 0.452 | 0.412 | 0.234
S. aureus Newman [4], first compound 3.124 µg/mL | – | 0.0691 | 0.0277 | 0.0028
S. pneumoniae D39V [3], first compound 1.25 µg/mL | – | 0.943 | 0.885 | 0.806
S. pneumoniae D39V [3], first compound 2.5 µg/mL | – | 0.899 | 0.868 | 0.817
S. pneumoniae D39V [3], first compound 5 µg/mL | – | 0.704 | 0.734 | 0.652

fitness, one replicate
Settings | first compound 0.781 µg/mL | first compound 1.562 µg/mL | first compound 3.124 µg/mL
S. aureus DSM 20231 [2], partner 32 µg/mL | 0.692 | 0.564 | 0.268
S. aureus DSM 20231 [2], partner 64 µg/mL | 0.0413 | 0.0145 | 0.0077
S. aureus Newman [4], partner 32 µg/mL | 0.056 | 0.0135 | 0
S. aureus Newman [4], partner 64 µg/mL | 0.0367 | 0.0527 | 0.0276

Settings | Bliss interaction score
B. subtilis 168 [5] | -0.107
S. aureus DSM 20231 [6] | -0.0508
S. aureus Newman [8] | -0.171
S. pneumoniae D39V [7] | 0.0537
